Measurements as given in publication PMC11842588, “A first-in-class selective inhibitor of ERK1/2 and ERK5 overcomes drug resistance with a single-molecule strategy” (Signal Transduction and Targeted Therapy, 2025).

Tests used:
Test in all cases: Kinase profiling
Format in all cases: biochemical
CDK3/cyclinE(h) = molecular target: T1, CDK3/cyclinE(h) (Homo sapiens, UniProt Q00526)
T1 construct: purchased Eurofins Cerep SA (KinaseProfiler)
Description: (§1) 380 kinases inhibitory activities of SKLB-D18 were conducted by Eurofins Cerep SA. The result was illustrated by kinase tree (http://www.kinhub.org/kinmap/).

CLK4(h) = molecular target: T2, CLK4(h) (Homo sapiens, UniProt Q9HAZ1)
T2 construct: purchased Eurofins Cerep SA (KinaseProfiler)
T2 sequence (Q9HAZ1 whole entry): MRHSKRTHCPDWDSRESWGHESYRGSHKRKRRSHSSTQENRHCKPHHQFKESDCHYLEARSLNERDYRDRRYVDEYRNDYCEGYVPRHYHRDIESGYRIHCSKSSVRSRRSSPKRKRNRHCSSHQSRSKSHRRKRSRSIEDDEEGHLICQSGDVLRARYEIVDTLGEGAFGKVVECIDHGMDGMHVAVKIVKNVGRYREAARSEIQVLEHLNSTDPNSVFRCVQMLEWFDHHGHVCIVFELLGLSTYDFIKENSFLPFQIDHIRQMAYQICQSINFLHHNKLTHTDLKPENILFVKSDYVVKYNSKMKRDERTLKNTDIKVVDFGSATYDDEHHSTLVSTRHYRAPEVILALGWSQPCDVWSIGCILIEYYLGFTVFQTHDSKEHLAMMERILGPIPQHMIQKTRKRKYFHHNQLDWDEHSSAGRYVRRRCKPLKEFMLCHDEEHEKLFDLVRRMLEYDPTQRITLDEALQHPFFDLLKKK
Description: as §1

CaMKIIγ(h) = molecular target: T3, CaMKIIγ(h) (Homo sapiens, UniProt Q13555)
T3 construct: purchased Eurofins Cerep SA (KinaseProfiler)
Description: as §1

DDR2(h) = molecular target: T4, DDR2(h) (Homo sapiens, UniProt Q16832)
T4 construct: purchased Eurofins Cerep SA (KinaseProfiler)
Description: as §1

DYRK3(h) = molecular target: T5, DYRK3(h) (Homo sapiens, UniProt O43781)
T5 construct: purchased Eurofins Cerep SA (KinaseProfiler)
Description: as §1

EphB3(h) = molecular target: T6, EphB3(h) (Homo sapiens, UniProt P54753)
T6 construct: purchased Eurofins Cerep SA (KinaseProfiler)
Description: as §1

Fgr(h) = molecular target: T7, Fgr(h) (Homo sapiens, UniProt P09769)
T7 construct: purchased Eurofins Cerep SA (KinaseProfiler)
T7 sequence (P09769 whole entry): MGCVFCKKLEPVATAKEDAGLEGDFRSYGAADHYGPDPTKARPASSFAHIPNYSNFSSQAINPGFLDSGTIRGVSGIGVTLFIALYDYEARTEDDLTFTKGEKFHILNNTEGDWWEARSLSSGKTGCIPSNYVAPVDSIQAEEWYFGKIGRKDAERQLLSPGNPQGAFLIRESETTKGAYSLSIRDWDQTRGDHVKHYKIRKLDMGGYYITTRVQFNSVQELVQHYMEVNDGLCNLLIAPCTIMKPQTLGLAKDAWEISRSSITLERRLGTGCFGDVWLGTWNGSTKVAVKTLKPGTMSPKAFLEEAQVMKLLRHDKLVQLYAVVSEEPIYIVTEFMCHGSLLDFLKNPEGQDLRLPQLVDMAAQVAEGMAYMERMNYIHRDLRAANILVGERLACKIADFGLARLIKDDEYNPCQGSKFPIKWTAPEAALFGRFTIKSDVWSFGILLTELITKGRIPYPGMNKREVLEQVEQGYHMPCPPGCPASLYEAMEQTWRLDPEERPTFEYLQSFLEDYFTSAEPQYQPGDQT
Description: as §1

Flt4(h) = molecular target: T8, Flt4(h) (Homo sapiens, UniProt P35916)
T8 construct: purchased Eurofins Cerep SA (KinaseProfiler)
Description: as §1

GRK7(h) = molecular target: T9, GRK7(h) (Homo sapiens, UniProt Q8WTQ7)
T9 construct: purchased Eurofins Cerep SA (KinaseProfiler)
Description: as §1

GSK3β(h) = molecular target: T10, GSK3β(h) (Homo sapiens, UniProt P49841)
T10 construct: purchased Eurofins Cerep SA (KinaseProfiler)
Description: as §1

HIPK4(h) = molecular target: T11, HIPK4(h) (Homo sapiens, UniProt Q8NE63)
T11 construct: purchased Eurofins Cerep SA (KinaseProfiler)
T11 sequence (Q8NE63 whole entry): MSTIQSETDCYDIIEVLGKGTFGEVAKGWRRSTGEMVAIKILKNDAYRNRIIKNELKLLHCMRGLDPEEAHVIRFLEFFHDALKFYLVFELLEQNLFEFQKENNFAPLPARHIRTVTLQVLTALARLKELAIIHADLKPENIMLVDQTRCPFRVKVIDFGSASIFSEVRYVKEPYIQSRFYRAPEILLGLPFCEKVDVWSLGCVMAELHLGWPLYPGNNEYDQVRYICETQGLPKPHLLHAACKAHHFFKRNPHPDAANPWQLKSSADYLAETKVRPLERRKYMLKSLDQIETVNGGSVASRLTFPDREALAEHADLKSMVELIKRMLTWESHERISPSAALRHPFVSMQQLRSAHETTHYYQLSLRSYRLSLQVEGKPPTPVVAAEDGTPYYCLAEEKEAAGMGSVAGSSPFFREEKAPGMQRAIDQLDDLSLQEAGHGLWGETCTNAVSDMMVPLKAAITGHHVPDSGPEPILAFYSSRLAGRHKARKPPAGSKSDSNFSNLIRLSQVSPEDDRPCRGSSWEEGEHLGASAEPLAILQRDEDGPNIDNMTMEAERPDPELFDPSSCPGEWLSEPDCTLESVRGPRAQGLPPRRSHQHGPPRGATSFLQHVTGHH
Description: as §1

Hck(h) = molecular target: T12, Hck(h) (Homo sapiens, UniProt P08631)
T12 construct: purchased Eurofins Cerep SA (KinaseProfiler)
Description: as §1

IKKβ(h) = molecular target: T13, IKKβ(h) (Homo sapiens, UniProt O14920)
T13 construct: purchased Eurofins Cerep SA (KinaseProfiler)
Description: as §1

IR(h) = molecular target: T14, IR(h) (Homo sapiens, UniProt P06213)
T14 construct: purchased Eurofins Cerep SA (KinaseProfiler)
Description: as §1

Itk(h) = molecular target: T15, Itk(h) (Homo sapiens, UniProt Q08881)
T15 construct: purchased Eurofins Cerep SA (KinaseProfiler)
Description: as §1

JAK1(h) = molecular target: T16, JAK1(h) (Homo sapiens, UniProt P23458)
T16 construct: purchased Eurofins Cerep SA (KinaseProfiler)
Description: as §1

JAK3(h) = molecular target: T17, JAK3(h) (Homo sapiens, UniProt P52333)
T17 construct: purchased Eurofins Cerep SA (KinaseProfiler)
T17 sequence (P52333 whole entry): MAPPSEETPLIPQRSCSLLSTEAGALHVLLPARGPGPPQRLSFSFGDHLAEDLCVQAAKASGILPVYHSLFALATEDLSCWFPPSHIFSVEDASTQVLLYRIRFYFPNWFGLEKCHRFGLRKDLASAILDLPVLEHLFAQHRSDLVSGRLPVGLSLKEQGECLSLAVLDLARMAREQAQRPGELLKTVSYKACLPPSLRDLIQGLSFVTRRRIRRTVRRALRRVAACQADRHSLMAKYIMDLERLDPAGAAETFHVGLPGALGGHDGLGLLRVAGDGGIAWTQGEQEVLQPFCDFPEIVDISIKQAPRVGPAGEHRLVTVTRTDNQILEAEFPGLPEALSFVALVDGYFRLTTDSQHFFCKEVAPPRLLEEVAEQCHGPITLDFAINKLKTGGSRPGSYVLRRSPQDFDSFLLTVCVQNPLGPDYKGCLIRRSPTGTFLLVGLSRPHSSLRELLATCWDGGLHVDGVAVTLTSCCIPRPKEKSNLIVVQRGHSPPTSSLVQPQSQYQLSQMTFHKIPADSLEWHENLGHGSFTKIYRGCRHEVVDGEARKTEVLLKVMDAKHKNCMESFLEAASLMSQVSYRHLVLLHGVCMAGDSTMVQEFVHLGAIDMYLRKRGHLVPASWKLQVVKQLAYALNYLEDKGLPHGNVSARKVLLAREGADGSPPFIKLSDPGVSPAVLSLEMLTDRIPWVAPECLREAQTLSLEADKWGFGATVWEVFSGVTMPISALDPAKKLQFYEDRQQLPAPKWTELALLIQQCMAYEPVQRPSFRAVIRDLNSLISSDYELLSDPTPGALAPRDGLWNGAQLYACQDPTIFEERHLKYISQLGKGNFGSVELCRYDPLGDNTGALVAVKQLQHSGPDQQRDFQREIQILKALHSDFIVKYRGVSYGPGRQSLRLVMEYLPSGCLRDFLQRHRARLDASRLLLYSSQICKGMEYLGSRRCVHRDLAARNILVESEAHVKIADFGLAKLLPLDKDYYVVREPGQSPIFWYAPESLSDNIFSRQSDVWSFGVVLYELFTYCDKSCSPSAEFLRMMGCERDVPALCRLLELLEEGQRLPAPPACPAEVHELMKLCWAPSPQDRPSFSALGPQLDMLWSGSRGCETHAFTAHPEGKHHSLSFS
Description: as §1

JNK2α2(h) = molecular target: T18, JNK2α2(h) (Homo sapiens, UniProt P45984)
T18 construct: purchased Eurofins Cerep SA (KinaseProfiler)
Description: as §1

LATS1(h) = molecular target: T19, LATS1(h) (Homo sapiens, UniProt O95835)
T19 construct: purchased Eurofins Cerep SA (KinaseProfiler)
Description: as §1

MEK2(h) = molecular target: T20, MEK2(h) (Homo sapiens, UniProt P36507)
T20 construct: purchased Eurofins Cerep SA (KinaseProfiler)
Description: as §1

MELK(h) = molecular target: T21, MELK(h) (Homo sapiens, UniProt Q14680)
T21 construct: purchased Eurofins Cerep SA (KinaseProfiler)
Description: as §1

MLK3(h) = molecular target: T22, MLK3(h) (Homo sapiens, UniProt Q16584)
T22 construct: purchased Eurofins Cerep SA (KinaseProfiler)
Description: as §1

MYLK2(h) = molecular target: T23, MYLK2(h) (Homo sapiens, UniProt Q9H1R3)
T23 construct: purchased Eurofins Cerep SA (KinaseProfiler)
Description: as §1

Mer(h) = molecular target: T24, Mer(h) (Homo sapiens, UniProt Q12866)
T24 construct: purchased Eurofins Cerep SA (KinaseProfiler)
Description: as §1

NEK5(h) = molecular target: T25, NEK5(h) (Homo sapiens, UniProt Q6P3R8)
T25 construct: purchased Eurofins Cerep SA (KinaseProfiler)
Description: as §1

NEK7(h) = molecular target: T26, NEK7(h) (Homo sapiens, UniProt Q8TDX7)
T26 construct: purchased Eurofins Cerep SA (KinaseProfiler)
Description: as §1

PAK3(h) = molecular target: T27, PAK3(h) (Homo sapiens, UniProt O75914)
T27 construct: purchased Eurofins Cerep SA (KinaseProfiler)
Description: as §1

PKCγ(h) = molecular target: T28, PKCγ(h) (Homo sapiens, UniProt P05129)
T28 construct: purchased Eurofins Cerep SA (KinaseProfiler)
Description: as §1

PKG1α(h) = molecular target: T29, PKG1α(h) (Homo sapiens, UniProt Q13976)
T29 construct: purchased Eurofins Cerep SA (KinaseProfiler)
T29 sequence (Q13976 whole entry): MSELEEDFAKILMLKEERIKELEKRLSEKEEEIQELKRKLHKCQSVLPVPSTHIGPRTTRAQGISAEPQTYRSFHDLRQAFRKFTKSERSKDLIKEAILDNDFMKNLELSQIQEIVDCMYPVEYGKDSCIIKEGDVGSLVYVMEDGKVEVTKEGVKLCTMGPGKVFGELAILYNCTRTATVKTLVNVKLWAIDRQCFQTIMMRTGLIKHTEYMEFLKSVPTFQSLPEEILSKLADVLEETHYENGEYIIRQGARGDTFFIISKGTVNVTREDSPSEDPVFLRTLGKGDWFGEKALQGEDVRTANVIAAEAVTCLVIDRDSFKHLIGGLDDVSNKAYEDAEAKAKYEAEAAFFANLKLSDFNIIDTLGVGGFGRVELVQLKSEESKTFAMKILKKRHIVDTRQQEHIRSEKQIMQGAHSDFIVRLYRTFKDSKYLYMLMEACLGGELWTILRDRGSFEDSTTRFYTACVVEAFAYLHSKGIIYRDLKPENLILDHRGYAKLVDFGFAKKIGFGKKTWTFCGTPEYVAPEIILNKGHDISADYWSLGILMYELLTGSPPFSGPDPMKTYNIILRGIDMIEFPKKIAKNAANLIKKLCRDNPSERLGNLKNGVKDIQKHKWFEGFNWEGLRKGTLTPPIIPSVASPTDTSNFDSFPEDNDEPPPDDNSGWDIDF
Description: as §1

PrKX(h) = molecular target: T30, PrKX(h) (Homo sapiens, UniProt P51817)
T30 construct: purchased Eurofins Cerep SA (KinaseProfiler)
Description: as §1

Rsk3(h) = molecular target: T31, Rsk3(h) (Homo sapiens, UniProt Q15349)
T31 construct: purchased Eurofins Cerep SA (KinaseProfiler)
Description: as §1

SGK(h) = molecular target: T32, SGK(h) (Homo sapiens, UniProt O00141)
T32 construct: purchased Eurofins Cerep SA (KinaseProfiler)
Description: as §1

STK25(h) = molecular target: T33, STK25(h) (Homo sapiens, UniProt O00506)
T33 construct: purchased Eurofins Cerep SA (KinaseProfiler)
Description: as §1

Snk(h) = molecular target: T34, Snk(h) (Homo sapiens, UniProt Q9NYY3)
T34 construct: purchased Eurofins Cerep SA (KinaseProfiler)
Description: as §1

Syk(h) = molecular target: T35, Syk(h) (Homo sapiens, UniProt P43405)
T35 construct: purchased Eurofins Cerep SA (KinaseProfiler)
Description: as §1

TGFBR1(h) = molecular target: T36, TGFBR1(h) (Homo sapiens, UniProt P36897)
T36 construct: purchased Eurofins Cerep SA (KinaseProfiler)
Description: as §1

TLK2(h) = molecular target: T37, TLK2(h) (Homo sapiens, UniProt Q86UE8)
T37 construct: purchased Eurofins Cerep SA (KinaseProfiler)
T37 sequence (Q86UE8 whole entry): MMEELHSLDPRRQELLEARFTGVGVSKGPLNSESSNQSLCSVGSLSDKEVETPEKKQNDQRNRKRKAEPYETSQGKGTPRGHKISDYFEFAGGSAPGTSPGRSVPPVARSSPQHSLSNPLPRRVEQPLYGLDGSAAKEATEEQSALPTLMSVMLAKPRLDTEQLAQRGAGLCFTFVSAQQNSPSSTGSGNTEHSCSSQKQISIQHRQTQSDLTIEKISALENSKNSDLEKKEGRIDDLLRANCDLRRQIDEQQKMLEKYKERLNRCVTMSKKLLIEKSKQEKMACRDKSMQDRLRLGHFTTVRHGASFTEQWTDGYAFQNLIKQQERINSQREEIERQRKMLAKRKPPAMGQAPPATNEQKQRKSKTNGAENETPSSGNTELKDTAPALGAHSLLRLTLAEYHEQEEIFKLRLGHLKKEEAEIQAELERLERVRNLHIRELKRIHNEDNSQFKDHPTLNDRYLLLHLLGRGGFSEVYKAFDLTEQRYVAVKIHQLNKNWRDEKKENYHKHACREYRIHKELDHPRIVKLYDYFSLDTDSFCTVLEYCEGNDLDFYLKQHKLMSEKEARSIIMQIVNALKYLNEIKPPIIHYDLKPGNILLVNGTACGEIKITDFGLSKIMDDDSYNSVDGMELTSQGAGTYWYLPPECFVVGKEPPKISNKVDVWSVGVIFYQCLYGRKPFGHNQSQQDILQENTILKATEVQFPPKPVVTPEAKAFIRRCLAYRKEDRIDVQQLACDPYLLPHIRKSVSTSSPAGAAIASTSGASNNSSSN
Description: as §1

TTBK1(h) = molecular target: T38, TTBK1(h) (Homo sapiens, UniProt Q5TCY1)
T38 construct: purchased Eurofins Cerep SA (KinaseProfiler)
Description: as §1

TTK(h) = molecular target: T39, TTK(h) (Homo sapiens, UniProt P33981)
T39 construct: purchased Eurofins Cerep SA (KinaseProfiler)
Description: as §1

mTOR(h) = molecular target: T40, mTOR(h) (Homo sapiens, UniProt P42345)
T40 construct: purchased Eurofins Cerep SA (KinaseProfiler)
Description: as §1

p70S6Kβ(h) = molecular target: T41, p70S6Kβ(h) (Homo sapiens, UniProt Q9UBS0)
T41 construct: purchased Eurofins Cerep SA (KinaseProfiler)
Description: as §1

Molecule CN(C)Cc1cccc(Nc2ncc(Cl)c(-c3csc(C(=O)NN4CCOCC4)c3)n2)c1 [SKLB-D18, 4-(5-chloro-2-((3-((dimethylamino)methyl)phenyl)amino)pyrimidin-4-yl)-N-morpholinothiophene-2-carboxamide] has an inhibition at 1 µM (CDK3/cyclinE(h)) of 16%, an inhibition at 1 µM (CLK4(h)) of 68% and an inhibition at 1 µM (CaMKIIγ(h)) of 50%. The inhibition at 1 µM (DDR2(h)) was -2%, the inhibition at 1 µM (DYRK3(h)) was 49% and the inhibition at 1 µM (EphB3(h)) was 3%. The inhibition at 1 µM (Fgr(h)) was 42%, the inhibition at 1 µM (Flt4(h)) was 63% and the inhibition at 1 µM (GRK7(h)) was 5%. It also gave an inhibition at 1 µM (GSK3β(h)) of 68%, an inhibition at 1 µM (HIPK4(h)) of 67% and an inhibition at 1 µM (Hck(h)) of 20%. The inhibition at 1 µM (IKKβ(h)) was 53%, the inhibition at 1 µM (IR(h)) was 0% and the inhibition at 1 µM (Itk(h)) was 23%. The inhibition at 1 µM (JAK1(h)) was 59%, the inhibition at 1 µM (JAK3(h)) was 67% and the inhibition at 1 µM (JNK2α2(h)) was 48%. It also gave an inhibition at 1 µM (LATS1(h)) of 21%, an inhibition at 1 µM (MEK2(h)) of 59% and an inhibition at 1 µM (MELK(h)) of 62%. The inhibition at 1 µM (MLK3(h)) was 69%, the inhibition at 1 µM (MYLK2(h)) was 68% and the inhibition at 1 µM (Mer(h)) was 69%. It also gave an inhibition at 1 µM (NEK5(h)) of 68%, an inhibition at 1 µM (NEK7(h)) of -2% and an inhibition at 1 µM (PAK3(h)) of 27%. The inhibition at 1 µM (PKCγ(h)) was 27%, the inhibition at 1 µM (PKG1α(h)) was 9% and the inhibition at 1 µM (PrKX(h)) was 43%. The inhibition at 1 µM (Rsk3(h)) was 66%, the inhibition at 1 µM (SGK(h)) was 11% and the inhibition at 1 µM (STK25(h)) was 7%. For the same molecule, the inhibition at 1 µM (Snk(h)) was 28%, the inhibition at 1 µM (Syk(h)) was 38% and the inhibition at 1 µM (TGFBR1(h)) was 20%. For the same molecule, the inhibition at 1 µM (TLK2(h)) was 52%, the inhibition at 1 µM (TTBK1(h)) was -5% and the inhibition at 1 µM (TTK(h)) was 34%. It also gave an inhibition at 1 µM (mTOR(h)) of -4% and an inhibition at 1 µM (p70S6Kβ(h)) of 15%.
